From US20150105252A1, “SUBSTITUTED PYRAZOLES AS HERBICIDES” (E I DU PONT DE NEMOURS AND COMPANY, priority 2013, published 2015)

Columns and labels:
[1] = tested on: barnyardgrass; assay: Test A preemergence; format: in vivo, Echinochloa crus-galli; conditions: preemergence
Summary of the method: (§1)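 Visual injury rating, 0–100 (0 no effect, 100 complete control), vs untreated controls ~10 days after treatment in greenhouse. Pre: directed soil spray on seeded loam/sand. Post: 2–10 cm plants, 1–2 leaf stage. Formulation: non-phytotoxic solvent mix + surfactant.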

[2] = tested on: barnyardgrass; assay: Test A postemergence; format: in vivo, Echinochloa crus-galli
Summary of the method: as §1

[3] = tested on: pigweed; assay: Test A postemergence; format: in vivo, Amaranthus retroflexus
Summary of the method: as §1

[4] = tested on: blackgrass; assay: Test C preemergence; format: in vivo, Alopecurus myosuroides; conditions: for Plant response rating (scale of 0 to 100), Blackgrass: Preemergence, 250 g ai/ha; for Blackgrass plant response rating / Plant response rating, Blackgrass: preemergence, 13 to 15 days; for Blackgrass plant response rating: scale 0 to 100 (0 no effect, 100 complete control); for Plant response rating, Blackgrass: 125 g ai/ha, scale 0 to 100, 0 = no effect, 100 = complete control
Summary of the method: (§2)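 Visual control ratings on a 0–100 scale (100 = complete control) made against untreated controls after 13 to 15 days in greenhouse. Compounds applied in surfactant-containing solvent mixture, either preemergence to loam/sand-sown seeds or postemergence to 1- to 4-leaf plants (2–18 cm) in peat medium.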

[5] = tested on: ducksalad; assay: Test B flood; format: in vivo, Heteranthera limosa; conditions: 250 g ai/ha, visual rating on 0 to 100 scale (0 no effect, 100 complete control), 13 to 15 days
Summary of the method: (§3)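 Visual ratings (0 = no effect, 100 = complete control) versus untreated controls were taken 13–15 days after treatment of greenhouse plants. Treatment was added to paddy water held at 3 cm depth on 2-leaf-stage seedlings.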

[6] = tested on: crabgrass, large; assay: Test C postemergence; format: in vivo, Digitaria sanguinalis; conditions: for Plant response rating (scale of 0 to 100 where 0 is no effect and 100 is complete control), Crabgrass, Large: Postemergence, 31 g ai/ha, visually evaluated after 13 to 15 days; for Crabgrass, Large plant response rating / Plant response rating, Crabgrass, Large: postemergence; for Crabgrass, Large plant response rating: 62 g ai/ha, scale 0 to 100
Summary of the method: as §2

[7] = tested on: foxtail, giant; assay: Test C preemergence; format: in vivo, Setaria faberii; conditions: for Plant response rating (scale of 0 to 100), Foxtail, Giant: Preemergence, 250 g ai/ha; for Foxtail, Giant plant response rating / Plant response rating, Foxtail, Giant: preemergence, 13 to 15 days; for Foxtail, Giant plant response rating: scale 0 to 100 (0 no effect, 100 complete control); for Plant response rating, Foxtail, Giant: 125 g ai/ha, scale 0 to 100, 0 = no effect, 100 = complete control
Summary of the method: as §2

[8] = tested on: ragweed; assay: Test C postemergence; format: in vivo, Ambrosia elation; conditions: for Plant response rating (scale of 0 to 100 where 0 is no effect and 100 is complete control), Ragweed: Postemergence, 31 g ai/ha, visually evaluated after 13 to 15 days; for Ragweed plant response rating / Plant response rating, Ragweed: postemergence; for Ragweed plant response rating: 62 g ai/ha, scale 0 to 100
Summary of the method: as §2

[9] = tested on: ragweed; assay: Test C preemergence; format: in vivo, Ambrosia elation; conditions: for Plant response rating (scale of 0 to 100), Ragweed: Preemergence, 250 g ai/ha; for Ragweed plant response rating / Plant response rating, Ragweed: preemergence, 13 to 15 days; for Ragweed plant response rating: scale 0 to 100 (0 no effect, 100 complete control); for Plant response rating, Ragweed: 125 g ai/ha, scale 0 to 100, 0 = no effect, 100 = complete control
Summary of the method: as §2

[10] = tested on: barnyardgrass; assay: Test C postemergence; format: in vivo, Echinochloa crus-galli; conditions: for Plant response rating (scale of 0 to 100 where 0 is no effect and 100 is complete control), Barnyardgrass: Postemergence, 31 g ai/ha, visually evaluated after 13 to 15 days; for Barnyardgrass plant response rating / Plant response rating, Barnyardgrass: postemergence; for Barnyardgrass plant response rating: 62 g ai/ha, scale 0 to 100
Summary of the method: as §2

[11] = tested on: corn; assay: Test A postemergence; format: in vivo, Zea mays
Summary of the method: as §1

[12] = tested on: rice; assay: Test B flood; format: in vivo, Oryza sativa; conditions: 250 g ai/ha, visual rating on 0 to 100 scale (0 no effect, 100 complete control), 13 to 15 days
Summary of the method: as §3

[13] = tested on: oat, wild; assay: Test C postemergence; format: in vivo, Avena fatua; conditions: for Plant response rating (scale of 0 to 100 where 0 is no effect and 100 is complete control), Oat, Wild: Postemergence, 31 g ai/ha, visually evaluated after 13 to 15 days; for Oat, Wild plant response rating / Plant response rating, Oat, Wild: postemergence; for Oat, Wild plant response rating: 62 g ai/ha, scale 0 to 100
Summary of the method: as §2

[14] = 125 g ai/ha, visual injury, 0 to 100 scale, approx. 10 days
[15] = 500 g ai/ha, visual injury after approx. 10 days, 0 to 100 scale (0 no effect, 100 complete control)
[16] = Postemergence, 500 g ai/ha, 0 to 100 scale (0 no effect, 100 complete control)
[17] = postemergence, 125 g ai/ha, about 10 days, visual rating on 0 to 100 scale (0 no effect, 100 complete control)
[18] = 250 g ai/ha, scale 0 to 100 (0 no effect, 100 complete control)
[19] = 125 g ai/ha, scale 0 to 100, 0 no effect, 100 complete control

Structure (SMILES)	Barnyardgrass plant response rating [1, 14]	Barnyardgrass plant response rating [1, 15]	Barnyardgrass plant response rating [2, 16]	Barnyardgrass plant response rating [2, 17]	Pigweed plant response rating [3, 16]	Pigweed plant response rating [3, 17]	Plant response rating (scale of 0 to 100), Blackgrass [4]	Blackgrass plant response rating ([4]; 31 g ai/ha, visual rating)	Blackgrass plant response rating ([4]; 62 g ai/ha)	Plant response rating, Blackgrass [4]	Plant response rating, Ducksalad [5]	Plant response rating (scale of 0 to 100 where 0 is no effect and 100 is complete control), Crabgrass, Large [6]	Crabgrass, Large plant response rating [6]	Plant response rating, Crabgrass, Large [6, 18]	Plant response rating, Crabgrass, Large [6, 19]	Plant response rating (scale of 0 to 100), Foxtail, Giant [7]	Foxtail, Giant plant response rating ([7]; 31 g ai/ha, visual rating)	Foxtail, Giant plant response rating ([7]; 62 g ai/ha)	Plant response rating, Foxtail, Giant [7]	Plant response rating (scale of 0 to 100 where 0 is no effect and 100 is complete control), Ragweed [8]	other results
CCCc1cc(C(=O)NCC)nn1Cc1cc(C(F)(F)F)nn1C [Compound 129]	90	100	90	90	100	100	90	60	80	90	95	10	10	20	35	100	100	100	100	55	Ragweed plant response rating [8]: 90; Plant response rating, Ragweed [8, 18]: 85; Plant response rating, Ragweed [8, 19]: 75; Plant response rating (scale of 0 to 100), Ragweed [9]: 100; Ragweed plant response rating ([9]; 31 g ai/ha, visual rating): 85; Ragweed plant response rating ([9]; 62 g ai/ha): 90; Plant response rating, Ragweed [9]: 98; Plant response rating (scale of 0 to 100 where 0 is no effect and 100 is complete control), Barnyardgrass [10]: 5; Barnyardgrass plant response rating [10]: 10; Plant response rating, Barnyardgrass [10, 18]: 55; Plant response rating, Barnyardgrass [10, 19]: 10; Corn plant response rating [11, 16]: 80; Corn plant response rating [11, 17]: 50; Plant response rating, Rice [12]: 40; Plant response rating (scale of 0 to 100 where 0 is no effect and 100 is complete control), Oat, Wild [13]: 30; Oat, Wild plant response rating [13]: 30; Plant response rating, Oat, Wild [13, 18]: 35; Plant response rating, Oat, Wild [13, 19]: 35
CCNC(=O)c1cc(CC)n(Cc2ccnc(OC(F)F)c2)n1 [Compound 130]	90	100	90	70	100	100	98	25	98	98	90	5	5	25	10	100	70	95	100	30	Ragweed plant response rating [8]: 35; Plant response rating, Ragweed [8, 18]: 85; Plant response rating, Ragweed [8, 19]: 45; Plant response rating (scale of 0 to 100), Ragweed [9]: 100; Ragweed plant response rating ([9]; 31 g ai/ha, visual rating): 70; Ragweed plant response rating ([9]; 62 g ai/ha): 100; Plant response rating, Ragweed [9]: 100; Plant response rating (scale of 0 to 100 where 0 is no effect and 100 is complete control), Barnyardgrass [10]: 5; Barnyardgrass plant response rating [10]: 5; Plant response rating, Barnyardgrass [10, 18]: 10; Plant response rating, Barnyardgrass [10, 19]: 5; Corn plant response rating [11, 16]: 90; Corn plant response rating [11, 17]: 70; Plant response rating, Rice [12]: 15; Plant response rating (scale of 0 to 100 where 0 is no effect and 100 is complete control), Oat, Wild [13]: 5; Oat, Wild plant response rating [13]: 10; Plant response rating, Oat, Wild [13, 18]: 15; Plant response rating, Oat, Wild [13, 19]: 15
CCCNC(=O)c1cc(CC)n(Cc2ccnc(OC(F)F)c2)n1 [Compound 132]	100	100	90	90	100	90	98	95	98	98	100	5	5	55	75	100	95	100	100	10	Ragweed plant response rating [8]: 10; Plant response rating, Ragweed [8, 18]: 90; Plant response rating, Ragweed [8, 19]: 55; Plant response rating (scale of 0 to 100), Ragweed [9]: 100; Ragweed plant response rating ([9]; 31 g ai/ha, visual rating): 70; Ragweed plant response rating ([9]; 62 g ai/ha): 90; Plant response rating, Ragweed [9]: 100; Plant response rating (scale of 0 to 100 where 0 is no effect and 100 is complete control), Barnyardgrass [10]: 5; Barnyardgrass plant response rating [10]: 5; Plant response rating, Barnyardgrass [10, 18]: 50; Plant response rating, Barnyardgrass [10, 19]: 10; Corn plant response rating [11, 16]: 90; Corn plant response rating [11, 17]: 70; Plant response rating, Rice [12]: 35; Plant response rating (scale of 0 to 100 where 0 is no effect and 100 is complete control), Oat, Wild [13]: 10; Oat, Wild plant response rating [13]: 10; Plant response rating, Oat, Wild [13, 18]: 25; Plant response rating, Oat, Wild [13, 19]: 10
CCOc1cc(C(=O)NC2CC2)nn1Cc1ccnc(OC(F)F)c1 [Compound 133]	90	100	100	90	100	100	95	85	90	90	90	5	5	35	10	100	85	100	100	25	Ragweed plant response rating [8]: 25; Plant response rating, Ragweed [8, 18]: 85; Plant response rating, Ragweed [8, 19]: 75; Plant response rating (scale of 0 to 100), Ragweed [9]: 100; Ragweed plant response rating ([9]; 31 g ai/ha, visual rating): 10; Ragweed plant response rating ([9]; 62 g ai/ha): 60; Plant response rating, Ragweed [9]: 100; Plant response rating (scale of 0 to 100 where 0 is no effect and 100 is complete control), Barnyardgrass [10]: 5; Barnyardgrass plant response rating [10]: 5; Plant response rating, Barnyardgrass [10, 18]: 15; Plant response rating, Barnyardgrass [10, 19]: 5; Corn plant response rating [11, 16]: 80; Corn plant response rating [11, 17]: 60; Plant response rating, Rice [12]: 20; Plant response rating (scale of 0 to 100 where 0 is no effect and 100 is complete control), Oat, Wild [13]: 5; Oat, Wild plant response rating [13]: 5; Plant response rating, Oat, Wild [13, 18]: 35; Plant response rating, Oat, Wild [13, 19]: 15
